Measurements as given in ChEMBL document CHEMBL4840319, “Aromatic Cadinane Sesquiterpenoids from the Fruiting Bodies of Phellinus pini Block SARS-CoV-2 Spike-ACE2 Interaction” (J Nat Prod, 2021).

Tests used:
[1] = target: Spike glycoprotein/Angiotensin-converting enzyme 2 (Severe acute respiratory syndrome coronavirus 2, UniProt P0DTC2+Q9BYF1); assay: Inhibition of SARS-CoV-2 spike glycoprotein/ His tagged human ACE2 interaction incubated for 1 hr followed by substrate addition and measured after 15 mins by ELISA; assay type: protein assay
[2] = target: Spike glycoprotein/Angiotensin-converting enzyme 2 (Severe acute respiratory syndrome coronavirus 2) (UniProt Q9BYF1+P0DTC2); assay: Inhibition of SARS-CoV-2 spike glycoprotein/ His tagged human ACE2 interaction at 100 uM incubated for 1 hr followed by substrate addition and measured after 15 mins by ELISA relative to control; assay type: protein assay

Sequence of Spike glycoprotein/Angiotensin-converting enzyme 2 (Q9BYF1 18-805 limits assumed, other chains not shown): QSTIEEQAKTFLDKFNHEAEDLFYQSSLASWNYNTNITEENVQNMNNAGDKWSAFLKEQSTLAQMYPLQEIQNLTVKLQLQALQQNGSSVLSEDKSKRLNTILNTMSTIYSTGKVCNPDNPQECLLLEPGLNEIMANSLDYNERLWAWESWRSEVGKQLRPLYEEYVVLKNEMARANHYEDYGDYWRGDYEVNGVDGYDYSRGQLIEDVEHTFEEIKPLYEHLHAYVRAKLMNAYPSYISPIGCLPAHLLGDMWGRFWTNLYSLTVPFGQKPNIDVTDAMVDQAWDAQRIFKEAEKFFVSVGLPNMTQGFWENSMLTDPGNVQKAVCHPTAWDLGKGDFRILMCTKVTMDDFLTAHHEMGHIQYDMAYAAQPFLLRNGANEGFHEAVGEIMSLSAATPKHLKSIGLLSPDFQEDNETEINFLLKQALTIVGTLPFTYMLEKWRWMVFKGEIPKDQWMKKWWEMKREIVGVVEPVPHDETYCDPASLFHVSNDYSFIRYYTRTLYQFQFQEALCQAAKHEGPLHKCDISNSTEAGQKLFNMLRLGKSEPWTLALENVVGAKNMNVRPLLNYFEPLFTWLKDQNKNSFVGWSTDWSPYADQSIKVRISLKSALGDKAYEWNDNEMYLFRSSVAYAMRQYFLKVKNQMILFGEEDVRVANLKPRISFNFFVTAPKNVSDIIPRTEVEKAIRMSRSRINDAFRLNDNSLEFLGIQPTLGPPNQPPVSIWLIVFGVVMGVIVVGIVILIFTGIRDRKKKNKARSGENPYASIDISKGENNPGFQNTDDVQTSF

## C[C@@H](CO)c1ccc(CO)c2ccc(C(=O)O)cc12
[1]
  IC50: 94.4 µM
[2]
  inhibition: > 50%

## CC(C)c1ccc(C(=O)O)c2ccc(C(=O)O)cc12
[1]
  IC50: 95.1 µM
[2]
  inhibition: > 50%

## C[C@@H](CO)c1ccc(C(=O)O)c2ccc(C(=O)O)cc12
[1]
  IC50: 76.1 µM
[2]
  inhibition: > 50%

## CC(C)(O)c1ccc(CO)c2ccc(C(=O)O)cc12
[1]
  IC50: 64.5 µM
[2]
  inhibition: > 50%

## CC(C)c1ccc(CO)c2ccc(C(=O)O)cc12
[1]
  IC50: 99.1 µM
[2]
  inhibition: > 50%
